Experimental data from ChEMBL document CHEMBL5724562, “Toxicity screen in isolated B cell assay results for EUbOPEN Chemogenomics Library” (2024).

system: B cell; assay: Cytotoxicity screening of chemical probes in isolated B cell assay. Data is normalized to DMSO control, the cell viability average of replicates are reported. Reduction of ATP level more than 20% indicate compromised cell health status.; details: human, 0.1 µM

Structure (SMILES)	Cell Viability [%]
O=S(=O)(NC1CCC(c2cc(F)ccc2F)(S(=O)(=O)c2ccc(Cl)cc2)CC1)C(F)(F)F (stereo unspecified) [MRK-560]	103.093
COCCOc1nc(-c2ccc(Cl)nc2)nc2c1CN(C(=O)c1ncn3ccccc13)CC2 [THPP-1]	97.9791
CS(=O)(=O)N1CCCC(NC(=O)[C@H](CCC2CCCCC2)NC(=O)c2ccc(CNC(=O)c3cnc4ccccn34)cc2)C1 (stereo partly specified) [SR-302]	99.1038
CNC(=O)Nc1ccc2c(c1)CC[C@@]21OC(=O)N(CC(=O)N(Cc2ccc(F)cc2)[C@@H](C)C(F)(F)F)C1=O [A-485]	92.4439
COc1cccc(CNC(=O)c2nc3scc(COCc4ccc(C(=O)O)cc4)c3c(=O)[nH]2)c1 [T-26c]	102.037
CCOC(=O)c1cc2cc(-c3cc(C(=O)NCc4ccc(C(=O)O)cc4)nn3C)ccc2[nH]1 [BI 4394]	99.7292

same assay, conditions: human, 1 µM

Structure (SMILES)	Cell Viability [%]
CC1(C)[C@H]2C[C@H](C/C=C\CCCC(=O)O)[C@@H](NC(=O)c3csc4ccc(O)cc34)[C@@H]1C2	100.906
CO[C@H]1CC[C@H](CNc2ccc(S(=O)(=O)NC(=O)c3ccc(N4CCN(CC5=C(c6ccc(Cl)cc6)CC(C)(C)CC5)CC4)cc3Oc3cnc4[nH]ccc4c3)cc2[N+](=O)[O-])CC1 [A-1211212]	88.4422
CCCS(=O)(=O)c1nc(NC2CC2)cc(-c2ccc3c(ccn3C3CC(C)(C)NC(C)(C)C3)c2)n1	24.107
Cc1ccc2nc(CNCCCOc3ccccc3)cc(O)c2c1 [UCSF924]	96.7712
Cc1nnc2c3ccccc3c(N[C@@H](C)[C@H](c3ccccc3)N(C)C)nn12	95.5642
CC1(C)C(N)=Nc2cc(OCCCN3Cc4ccc(OCCc5cn(CC(=O)N6CCC(CCN7CCCC7)CC6)nn5)cc4C3)c(OCC3CC3)cc21	92.0303
COc1ccncc1C(=O)NC(=O)Nc1ccc(-c2ccccc2)c(C(F)(F)F)c1	100.618
CCCn1c(=O)c2[nH]c(C3CCCC3)nc2n(CCC)c1=O [1,3-DIPROPYL-8-CYCLOPENTYLXANTHINE [DPCPX]]	101.399
CC(=O)N1CCC(c2ccc(C(=O)NC(=N)N)cc2C(F)(F)F)CC1 [BI 9627]	95.0864
CCCCN(Cc1ccccc1)C(=O)c1ccc(S(=O)(=O)Nc2ccccc2)cc1	99.9127
Cc1nc(N2CC[C@H](O)C2)ncc1-c1cc(C(F)(F)F)cc2[nH]ncc12	99.9461
CCOC(=O)CCNc1cc(N2CCc3ccccc3CC2)nc(-c2ccccn2)n1	95.6308
Cc1ccc2c(c1CCC(=O)O)CC[C@@H](NS(=O)(=O)c1ccc(Cl)cc1)C2 [TERUTROBAN]	102.464
O=C(N1CCS(=O)(=O)CC1)N1C[C@H](c2ccc(OC(F)(F)F)cc2)C[C@H](c2nc(C3CC3)no2)C1 [BAY-386]	95.9614
Cc1c(NC(=O)c2cc(C(N)=O)nc3cc(F)ccc23)c(C(F)(F)F)nn1Cc1ccc(C#N)cc1 [BAY-876]	101.62
Cc1c(N2CCCC2)nc2ccc(Br)cc2c1C(=O)NC[C@H](CCC(=O)O)c1ccccc1Cl [BAY-6672]	98.0293
Cl.Cl.c1ccc([C@@H]2C[C@H]2NC2CCNCC2)cc1	93.3816
Cc1ccccc1Oc1cc(-n2c(=O)cc(C(F)(F)F)[nH]c2=O)c2ccccc2c1Cl [BAY-069]	101.552
Cc1ccc(/C(=C\CN2CCCC2)c2ccccn2)cc1 [TRIPROLIDINE]	98.8273
Cc1cc(=O)n(C)c2cc(N3C(=O)CC[C@H](NS(=O)(=O)CC(C)C)[C@H]3c3ccc(Cl)cc3)ccc12	97.6321
Cn1cc(-c2ccc3occ(-c4cccc(-c5ccncc5)c4)c3n2)cn1	101.775
C=CC(=O)N1CCC[C@@H](n2nc(-c3ccc(Oc4ccccc4)cc3)c3c(N)ncnc32)C1 [IBRUTINIB]	86.9807
CNCc1ccccc1-c1csc([C@@H](C)Nc2nc(C)nc3cc(OC)c(OC)cc23)c1 [BAY-293]	78.8725
Cl.O=c1c2cccn2c2ccccc2n1CCCN1CCC(c2ccc(Cl)cc2)CC1	96.0052
Cn1cc(CCn2cnc(-c3cnn(C)c3)c2-c2ccc(C#N)cc2)cn1	99.8514

Structure (SMILES)	Cell Viability [%]
CN1CCN(c2cnc3c(C4CCN(C(=O)c5ccc(OC(F)(F)F)cc5N)CC4)ncnc3c2)CC1 [BAY-885]	96.4414
O=C(O)Cc1ccccc1Nc1c(Cl)cccc1Cl [DICLOFENAC]	103.39
COCc1nc2cnc3cc(-c4c(C)noc4C)c(OC[C@H]4CCNC4)cc3c2n1[C@H](C)c1ccccc1 [GSK778]	95.4048
COc1cc(Nc2nccc(-c3cnn4nc(OC)ccc34)n2)cc(C(F)(F)F)c1	93.0077
C[C@@H]1CN(Cc2ccc(F)cc2)CCN1C(=O)COc1ccc(Cl)cc1NC(N)=O [BX 471 FREE BASE]	91.1693
CC(=O)Nc1c(F)cc(C(=O)N[C@H]2CC[C@H](O)CC2)cc1O[C@@H](C)c1ccccc1 [GSK046]	96.5866
C[C@H]1CC(=O)Nc2cc(C(=O)NCCC3CC3)ccc2N1C(=O)N1CC2CC2C1 (stereo partly specified)	100.735
COc1cc2c(NC3CCN(C(C)C)CC3)nc(N3CCC(F)(F)CC3)nc2cc1OCCCN1CCCC1	98.4898
CCC(=O)Nc1cc(Nc2cc(NC3CC3)n3ncc(C#N)c3n2)ccc1C	88.1167
CCCc1cc(C)[nH]c(=O)c1CNC(=O)c1cc(-c2ccc(N3CCN(C(C)C)CC3)nc2)cc2c1cnn2C(C)C	96.021
Cc1cc(Cn2cnc3c2C[C@@H](C(=O)O)N(C(=O)C(c2ccccc2)c2ccccc2)C3)ccc1N(C)C	100.94
Clc1cccc(-c2nnnn2Cc2cccnc2)c1Cl	97.1983
C[C@H](c1ccnc(Nc2nc3ccc(-c4cc(N(C)C)ncn4)cc3[nH]2)c1)N1CCN(C(=O)CC(F)(F)F)CC1 [BAY-985]	78.1838
C[C@@H](O[C@H]1OCCN(Cc2n[nH]c(=O)[nH]2)[C@H]1c1ccc(F)cc1)c1cc(C(F)(F)F)cc(C(F)(F)F)c1 [APREPITANT]	101.584
C[C@@H](c1cccc(CN)c1)n1cc(Cl)cc(C(N)=O)c1=N.Cl	100.561
Cc1cc(-n2nc(Cc3cc(F)cc(C(F)(F)F)c3)nc2C)ccc1C(N)=O [TP-024]	100.697
COc1ccc(C(=O)N2CCN(C(=O)/C=C/c3ccc(Br)cc3)CC2)cc1	97.705
COc1cc(-c2cn([C@H]3CCc4c(F)cccc4N(CC(F)(F)F)C3=O)nn2)ccc1-n1cnc(C)c1	98.1038
CN(C)CCCOc1ccc(-c2cc(NCCCn3cccn3)nc(S(C)(=O)=O)n2)cc1	98.5143
COc1ccc2c(c1)O[C@@H](c1ccc(OC)c(OC)c1)C[C@H]2NC(=O)C1(c2ccc3c(c2)OC(F)(F)O3)CC1 [A-1596586]	101.385
O=C(NCC(=O)N1CCCC1)Nc1ccc2cnccc2c1	100.263
CC#C[C@@H](CC(=O)O)c1ccc(OCc2cccc(-c3ccc(C(F)(F)F)cc3)c2)cc1	93.0276
Cc1c(C(=O)NN2CCCCC2)nn(-c2ccc(Cl)cc2Cl)c1-c1ccc(Cl)cc1 [RIMONABANT]	99.45
Nc1nc(NCc2ccccc2)nc(-c2ccccc2CO)n1 [Ogerin]	100.729
CC(C)N(CCCNC(=O)Nc1ccc(C(C)(C)C)cc1)C[C@H]1O[C@@H](n2cc(Br)c3c(N)ncnc32)[C@H](O)[C@@H]1O	95.9292
